Data taken from patent publication US10906899B2, “Bicyclic fused pyrazole derivatives for the treatment of RSV” (GEORGIA STATE UNIVERSITY RESEARCH FOUNDATION, INC., priority 2016, dated 2021).

system: RSV; test: Dose-response counterscreen: luciferase reporter virus infection of BEAS-2B cells (EC50); type: cell-based, respiratory syncytial virus (RSV); conditions: human respiratory syncytial virus, A series compounds, anti-RSV potency, read-out: Potency Range (EC50 values)

SMILES | EC50 [µM]
COc1cc(C2CC(=O)Nc3c2cnn3-c2nc3ccccc3s2)ccc1OC1CCCC1 (centres unmarked) [AVG-006, 1-(benzo[d]thiazol-2-yl)-4-(4-(cyclopentyloxy)-3-methoxyphenyl)-4,5-dihydro-1H-pyrazolo[3,4-b]pyridin-6(7H)-one] | 1 to 10
COc1cc(C2CC(=O)Nc3nn(-c4nc5ccccc5s4)cc32)ccc1OC1CCCC1 (centres unmarked) [AVG-006b] | 1 to 10
COc1ccc(C2CC(=O)Nc3c2cnn3-c2ccccc2)cc1OC1CCCC1 (centres unmarked) [AVG-065, 4-(3-(cyclopentyloxy)-4-methoxyphenyl)-1-phenyl-4,5-dihydro-1H-pyrazolo[3,4-b] pyridin-6(7H)-one] | 10 to 20
COc1ccc(C2CC(=O)Nc3nn(-c4ccccc4)cc32)cc1OC1CCCC1 (centres unmarked) [AVG-065b] | 1 to 10
COc1cc(C2CC(=O)Nc3c2cnn3-c2ccccc2)ccc1OC1CCCC1 (centres unmarked) [AVG-066] | 10 to 20
COc1ccc(-c2cc(=O)[nH]c3c2cnn3-c2ccccc2)cc1OC1CCCC1 [AVG-067, 4-(3-(cyclopentyloxy)-4-methoxyphenyl)-1-phenyl-1H-pyrazolo[3,4-b]pyridine-6(7H)-one] | > 20
COc1ccc(Cn2ncc3c2NC(=O)CC3c2ccc(OC)c(OC3CCCC3)c2)c(OC)c1 (centres unmarked) [AVG-068, 4-(3-(cyclopentyloxy)-4-methoxyphenyl)-1-(2,4-dimethoxybenzyl)-4,5-dihydro-1H-pyrazolo[3,4-b]pyridin-6(7H)-one] | 1 to 10
COc1ccc(C2CC(=O)Nc3[nH]ncc32)cc1OC1CCCC1 (centres unmarked) [AVG-069, 4-(3-(cyclopentyloxy)-4-methoxyphenyl)-4,5-dihydro-1H-pyrazolo[3,4-b]pyridin-6(7H)-one] | > 20
COc1ccc(C2CC(=O)Nc3c2cnn3-c2ccccn2)cc1OC1CCCC1 (centres unmarked) [AVG-116] | 1 to 10
COc1ccc(C2CC(=O)Nc3nn(-c4ccccn4)cc32)cc1OC1CCCC1 (centres unmarked) [AVG-117] | 10 to 20

same assay, conditions: human respiratory syncytial virus, B series compounds, read-out: Potency Range (EC50 values)

SMILES | EC50 [µM]
Cc1c2c(=O)n(-c3nc4ccccc4s3)n(Cc3ccccc3)c2cc(=O)n1Cc1ccco1 [AVG-021, 2-(benzo[d]thiazol-2-yl)-1-benzyl-5-(furan-2-ylmethyl)-4-methyl-1H-pyrazolo[4,3-c] pyridine-3,6(2H,5H)-dione] | 1 to 10
Cc1c2c(=O)n(-c3nc4ccccc4s3)[nH]c2cc(=O)n1Cc1ccco1 [AVG-022, 2-(benzo[d]thiazol-2-yl)-5-(furan-2-ylmethyl)-4-methyl-1H-pyrazolo[4,3-c]pyridine-3,6(2H, 5H)-dione] | 0.1 to 1
Cc1c2c(=O)n(-c3nc4ccccc4s3)n(C)c2cc(=O)n1Cc1ccco1 [AVG-023] | > 20
Cc1c2c(=O)n(-c3nc4ccccc4s3)n(CC3CCCCC3)c2cc(=O)n1Cc1ccco1 [AVG-024] | 1 to 10
Cc1c2c(=O)n(-c3nc4ccccc4s3)n(CC3CCOCC3)c2cc(=O)n1Cc1ccco1 [AVG-025] | 1 to 10
Cc1c2c(=O)n(-c3nc4ccccc4s3)n(CC3CCNCC3)c2cc(=O)n1Cc1ccco1 [AVG-026] | 1 to 10
Cc1c2c(=O)n(-c3nc4ccccc4s3)n(CC3CCN(C)CC3)c2cc(=O)n1Cc1ccco1 [AVG-027] | 10 to 20
Cc1c2c(=O)n(-c3nc4ccccc4s3)n(Cc3ccccc3)c2cc(=O)n1CCN1CCOCC1 [AVG-028] | 1 to 10
Cc1c2c(=O)n(-c3nc4ccccc4s3)n(C)c2cc(=O)n1CCN1CCOCC1 [AVG-029] | > 20
Cc1c2c(=O)n(-c3nc4ccccc4s3)n(Cc3ccccc3)c2cc(=O)n1Cc1ccc(Cl)cc1 [AVG-031] | 0.1 to 1
Cc1c2c(=O)n(-c3nc4ccccc4s3)n(C)c2cc(=O)n1Cc1ccc(Cl)cc1 [AVG-032] | > 20
Cc1nc(-n2c(=O)c3c(C)n(Cc4ccco4)c(=O)cc3n2Cc2ccccc2)sc1C [AVG-033] | 1 to 10
Cc1c2c(=O)n(-c3cc4ccccc4cn3)n(Cc3ccccc3)c2cc(=O)n1Cc1ccco1 [AVG-034] | 1 to 10
Cc1c2c(=O)n(-c3ccccn3)n(Cc3ccccc3)c2cc(=O)n1Cc1ccco1 [AVG-035] | 1 to 10
Cc1c2c(=O)n(-c3nc4ccccc4s3)n(Cc3ccccc3)c2cc(=O)n1Cc1ccccn1 [AVG-036] | 0.1 to 1
Cc1c2c(=O)n(-c3nc4ccccc4s3)n(C)c2cc(=O)n1Cc1ccccn1 [AVG-037] | > 20
Cc1c2c(=O)n(-c3nc4ccccc4s3)n(Cc3ccccc3)c2cc(=O)n1CC1CCNCC1 [AVG-038] | > 20
Cc1c2c(=O)n(-c3nc4ccccc4s3)n(Cc3ccccc3)c2cc(=O)n1CC1CCN(C)CC1 [AVG-039] | 10 to 20
Cc1c2c(=O)n(-c3nc4ccccc4s3)n(Cc3ccccc3)c2cc(=O)n1CC1CCOCC1 [AVG-040] | 1 to 10
Cc1c2c(=O)n(-c3nc4ccccc4s3)n(Cc3ccccc3)c2cc(=O)n1C1CCNCC1 [AVG-041] | 1 to 10
Cc1c2c(=O)n(-c3nc4ccccc4s3)n(Cc3ccccc3)c2cc(=O)n1C1CCN(C)CC1 [AVG-042] | 1 to 10
Cc1c2c(=O)n(-c3nc4ccccc4s3)n(Cc3ccccc3)c2cc(=O)n1C1CCOCC1 [AVG-043] | 10 to 20

SMILES | EC50 [µM]
Cc1c2c(=O)n(-c3nc4ccccc4s3)n(CC(C)C)c2cc(=O)n1Cc1ccco1 [AVG-070] | 1 to 10
Cc1c2c(=O)n(-c3nc4ccccc4s3)n(CC3CCCC3)c2cc(=O)n1Cc1ccco1 [AVG-071] | 1 to 10
Cc1c2c(=O)n(-c3nc4ccccc4s3)n(CC3CCCOC3)c2cc(=O)n1Cc1ccco1 (centres unmarked) [AVG-072] | 1 to 10
Cc1c2c(=O)n(-c3nc4ccccc4s3)n(CC3CCCCO3)c2cc(=O)n1Cc1ccco1 (centres unmarked) [AVG-073] | 1 to 10
Cc1c2c(=O)n(-c3nc4ccccc4s3)n(Cc3ccccc3)c2cc(=O)n1CC1CCCO1 (centres unmarked) [AVG-074] | 10 to 20
Cc1c2c(=O)n(-c3nc4ccccc4s3)n(Cc3ccccc3)c2cc(=O)n1CC1CCOC1 (centres unmarked) [AVG-075] | 1 to 10
Cc1c2c(=O)n(-c3nc4ccccc4s3)n(Cc3ccccc3)c2cc(=O)n1Cc1ccccc1Cl [AVG-076] | 10 to 20
Cc1c2c(=O)n(-c3nc4ccccc4s3)n(Cc3ccccc3)c2cc(=O)n1Cc1cccc(Cl)c1 [AVG-077] | 0.1 to 1
Cc1c2c(=O)n(-c3ccccn3)n(Cc3ccccc3)c2cc(=O)n1Cc1ccc(Cl)cc1 [AVG-078] | 0.1 to 1
Cc1c2c(=O)n(-c3ccccn3)n(CC3CCOCC3)c2cc(=O)n1Cc1ccc(Cl)cc1 [AVG-079] | > 20
Cc1c2c(=O)n(-c3ccccc3)n(Cc3ccccc3)c2cc(=O)n1Cc1ccco1 [AVG-080] | 1 to 10
Cc1c2c(=O)n(-c3cccnc3)n(Cc3ccccc3)c2cc(=O)n1Cc1ccco1 [AVG-081] | 10 to 20
Cc1c2c(=O)n(-c3ccncc3)n(Cc3ccccc3)c2cc(=O)n1Cc1ccco1 [AVG-082] | 1 to 10
Cc1c2c(=O)n(-c3nc4ccccc4s3)n(Cc3ccccc3)c2cc(=O)n1Cc1cccnc1 [AVG-088] | 1 to 10
Cc1c2c(=O)n(-c3nc4ccccc4s3)n(Cc3ccccc3)c2cc(=O)n1Cc1ccncc1 [AVG-089] | 1 to 10
Cc1c2c(=O)n(-c3nc4ccccc4s3)n(Cc3ccccc3)c2cc(=O)n1Cc1ncccn1 [AVG-090] | 10 to 20
Cc1c2c(=O)n(-c3nc4ccccc4s3)n(Cc3ccccc3)c2cc(=O)n1Cc1cccnn1 [AVG-091] | 1 to 10
Cc1c2c(=O)n(-c3nc4ccccc4s3)n(Cc3ccccc3)c2cc(=O)n1Cc1ccncn1 [AVG-092] | 1 to 10
Cc1c2c(=O)n(-c3nc4ccccc4s3)n(Cc3ccccc3)c2cc(=O)n1Cc1cnccn1 [AVG-093] | 0.1 to 1
Cc1c2c(=O)n(-c3nc4ccccc4s3)n(Cc3ccccc3)c2cc(=O)n1Cc1cccc(Cl)n1 [AVG-094] | 0.1 to 1
Cc1c2c(=O)n(-c3nc4ccccc4s3)n(Cc3ccccc3)c2cc(=O)n1Cc1ccc(Cl)cn1 [AVG-095] | 1 to 10
Cc1c2c(=O)n(-c3nc4ccccc4s3)n(Cc3ccccc3)c2cc(=O)n1Cc1ncco1 [AVG-096] | 1 to 10

SMILES | EC50 [µM]
Cc1c2c(=O)n(-c3nc4ccccc4s3)n(Cc3ccccc3)c2cc(=O)n1Cc1ncc[nH]1 [AVG-097] | 1 to 10
Cc1c2c(=O)n(-c3nc4ccccc4s3)n(Cc3ccccc3)c2cc(=O)n1Cc1nccn1C [AVG-098] | 1 to 10
Cc1c2c(=O)n(-c3nc4ccccc4s3)n(Cc3ccccc3)c2cc(=O)n1Cc1c[nH]cn1 [AVG-099] | 1 to 10
Cc1c2c(=O)n(-c3nc4ccccc4s3)n(Cc3ccccc3)c2cc(=O)n1Cc1cn(C)cn1 [AVG-100] | > 20
Cc1c2c(=O)n(-c3nc4ccccc4s3)n(Cc3ccccc3)c2cc(=O)n1Cc1ccn[nH]1 [AVG-101] | 1 to 10
Cc1c2c(=O)n(-c3nc4ccccc4s3)n(Cc3ccccc3)c2cc(=O)n1Cc1ccnn1C [AVG-102] | 1 to 10
Cc1c2c(=O)n(-c3nc4ccccc4s3)n(Cc3ccccc3)c2cc(=O)n1Cc1ccn(C)n1 [AVG-103] | 1 to 10
Cc1c2c(=O)n(-c3ccccn3)n(Cc3ccccc3)c2cc(=O)n1Cc1ccccn1 [AVG-104] | 1 to 10
Cc1c2c(=O)n(-c3ncccn3)n(Cc3ccccc3)c2cc(=O)n1Cc1ccco1 [AVG-105] | > 20
Cc1c2c(=O)n(-c3cnccn3)n(Cc3ccccc3)c2cc(=O)n1Cc1ccco1 [AVG-106] | 1 to 10
Cc1c2c(=O)n(-c3ccccc3)n(Cc3ccccc3)c2cc(=O)n1Cc1ccccn1 [AVG-107] | 1 to 10
Cc1c2c(=O)n(-c3ccncn3)n(Cc3ccccc3)c2cc(=O)n1Cc1ccco1 [AVG-108] | 1 to 10
Cc1c2c(=O)n(-c3cccnn3)n(Cc3ccccc3)c2cc(=O)n1Cc1ccco1 [AVG-109] | 1 to 10
Cc1c2c(=O)n(-c3ccco3)n(Cc3ccccc3)c2cc(=O)n1Cc1ccccn1 [AVG-110] | 10 to 20
Cc1c2c(=O)n(-c3nc4ccccc4s3)n(Cc3ccccn3)c2cc(=O)n1Cc1ccco1 [AVG-119] | 1 to 10
Cc1c2c(=O)n(-c3nc4ccccc4s3)n(Cc3cccnc3)c2cc(=O)n1Cc1ccco1 [AVG-120] | 1 to 10
Cc1c2c(=O)n(-c3nc4ccccc4s3)n(Cc3ccncc3)c2cc(=O)n1Cc1ccco1 [AVG-121] | 1 to 10
Cc1c2c(=O)n(-c3nc4ccccc4s3)n(Cc3ccco3)c2cc(=O)n1Cc1ccco1 [AVG-122] | 1 to 10
Cc1c2c(=O)n(-c3nc4ccccc4s3)n(Cc3ccoc3)c2cc(=O)n1Cc1ccco1 [AVG-123] | 10 to 20
Cc1c2c(=O)n(-c3nc4ccccc4s3)n(Cc3ncco3)c2cc(=O)n1Cc1ccco1 [AVG-124] | 1 to 10
